Measured values: BigSolDB 2.1

## COc1cc(C(=O)O)cc(OC)c1O
In ethanol, 283.15 K
  solubility (mole fraction): 0.0115
In ethanol, 288.15 K
  solubility (mole fraction): 0.0125
In ethanol, 293.15 K
  solubility (mole fraction): 0.0145
In ethanol, 298.15 K
  solubility (mole fraction): 0.0169
In ethanol, 303.15 K
  solubility (mole fraction): 0.0188
In ethanol, 308.15 K
  solubility (mole fraction): 0.0217
In ethanol, 313.15 K
  solubility (mole fraction): 0.0251
In ethanol, 318.15 K
  solubility (mole fraction): 0.0279
In ethanol, 323.15 K
  solubility (mole fraction): 0.0316
In ethyl acetate, 283.15 K
  solubility (mole fraction): 0.0007
In ethyl acetate, 288.15 K
  solubility (mole fraction): 0.00084
In ethyl acetate, 293.15 K
  solubility (mole fraction): 0.001
In ethyl acetate, 298.15 K
  solubility (mole fraction): 0.00125
In ethyl acetate, 303.15 K
  solubility (mole fraction): 0.00149
In ethyl acetate, 308.15 K
  solubility (mole fraction): 0.0018
In ethyl acetate, 313.15 K
  solubility (mole fraction): 0.00221
In ethyl acetate, 318.15 K
  solubility (mole fraction): 0.0026
In ethyl acetate, 323.15 K
  solubility (mole fraction): 0.00323
In ethylene glycol, 283.15 K
  solubility (mole fraction): 0.00812
In ethylene glycol, 288.15 K
  solubility (mole fraction): 0.00951
In ethylene glycol, 293.15 K
  solubility (mole fraction): 0.0113
In ethylene glycol, 298.15 K
  solubility (mole fraction): 0.0124
In ethylene glycol, 303.15 K
  solubility (mole fraction): 0.0146
In ethylene glycol, 308.15 K
  solubility (mole fraction): 0.017
In ethylene glycol, 313.15 K
  solubility (mole fraction): 0.0203
In ethylene glycol, 318.15 K
  solubility (mole fraction): 0.0235
In ethylene glycol, 323.15 K
  solubility (mole fraction): 0.0269
In isopropanol, 283.15 K
  solubility (mole fraction): 0.00401
In isopropanol, 288.15 K
  solubility (mole fraction): 0.00455
In isopropanol, 293.15 K
  solubility (mole fraction): 0.00545
In isopropanol, 298.15 K
  solubility (mole fraction): 0.00627
In isopropanol, 303.15 K
  solubility (mole fraction): 0.00752
In isopropanol, 308.15 K
  solubility (mole fraction): 0.00853
In isopropanol, 313.15 K
  solubility (mole fraction): 0.00971
In isopropanol, 318.15 K
  solubility (mole fraction): 0.0115
In isopropanol, 323.15 K
  solubility (mole fraction): 0.0131
In methanol, 283.15 K
  solubility (mole fraction): 0.0137
In methanol, 288.15 K
  solubility (mole fraction): 0.015
In methanol, 293.15 K
  solubility (mole fraction): 0.0173
In methanol, 298.15 K
  solubility (mole fraction): 0.019
In methanol, 303.15 K
  solubility (mole fraction): 0.0209
In methanol, 308.15 K
  solubility (mole fraction): 0.0238
In methanol, 313.15 K
  solubility (mole fraction): 0.0271
In methanol, 318.15 K
  solubility (mole fraction): 0.0298
In methanol, 323.15 K
  solubility (mole fraction): 0.0331
In n-butanol, 283.15 K
  solubility (mole fraction): 0.0032
In n-butanol, 288.15 K
  solubility (mole fraction): 0.00375
In n-butanol, 293.15 K
  solubility (mole fraction): 0.00441
In n-butanol, 298.15 K
  solubility (mole fraction): 0.00518
In n-butanol, 303.15 K
  solubility (mole fraction): 0.00624
In n-butanol, 308.15 K
  solubility (mole fraction): 0.00735
In n-butanol, 313.15 K
  solubility (mole fraction): 0.00832
In n-butanol, 318.15 K
  solubility (mole fraction): 0.0098
In n-butanol, 323.15 K
  solubility (mole fraction): 0.0116
In n-hexanol, 283.15 K
  solubility (mole fraction): 0.00241
In n-hexanol, 288.15 K
  solubility (mole fraction): 0.00281
In n-hexanol, 293.15 K
  solubility (mole fraction): 0.0033
In n-hexanol, 298.15 K
  solubility (mole fraction): 0.0042
In n-hexanol, 303.15 K
  solubility (mole fraction): 0.0048
In n-hexanol, 308.15 K
  solubility (mole fraction): 0.0058
In n-hexanol, 313.15 K
  solubility (mole fraction): 0.00702
In n-hexanol, 318.15 K
  solubility (mole fraction): 0.00852
In n-hexanol, 323.15 K
  solubility (mole fraction): 0.0101
In sec-butanol, 283.15 K
  solubility (mole fraction): 0.00188
In sec-butanol, 288.15 K
  solubility (mole fraction): 0.00223
In sec-butanol, 293.15 K
  solubility (mole fraction): 0.0029
In sec-butanol, 298.15 K
  solubility (mole fraction): 0.00357
In sec-butanol, 303.15 K
  solubility (mole fraction): 0.00432
In sec-butanol, 308.15 K
  solubility (mole fraction): 0.00503
In sec-butanol, 313.15 K
  solubility (mole fraction): 0.00604
In sec-butanol, 318.15 K
  solubility (mole fraction): 0.00737
In sec-butanol, 323.15 K
  solubility (mole fraction): 0.00921
